Assay results as given in ChEMBL document CHEMBL4819157, “Synthesis and biological evaluation of novel ligustrazine-chalcone derivatives as potential anti-triple negative breast cancer agents” (Bioorg Med Chem Lett, 2021).
The source made the active and inactive calls. The calls are words filed in the database; no cut-off is given here.

What was measured:
MCF7 [1] = assay: Antiproliferation activity against human MCF-7 cells assessed as reduction in cell viability after 72 hrs by CCK8 assay; assay type: functional, cell-based; conditions: MCF7, 72 h
A549 = assay: Antiproliferation activity against human A549 cells assessed as reduction in cell viability after 72 hrs by CCK8 assay; assay type: functional, cell-based; conditions: A549, 72 h
MDA-MB-231 [2] = assay: Antiproliferation activity against human MDA-MB-231 cells assessed as reduction in cell viability after 72 hrs by CCK8 assay; assay type: functional, cell-based; conditions: MDA-MB-231, 72 h
HepG2 = assay: Antiproliferation activity against human HepG2 cells assessed as reduction in cell viability after 72 hrs by CCK8 assay; assay type: functional, cell-based; conditions: HepG2, 72 h
HUVEC = assay: Cytotoxicity against human HUVEC cells assessed as reduction in cell viability after 72 hrs by CCK8 assay; assay type: cell-based
MCF7 [3] = assay: Inhibition of cell migration in human MCF-7 cells 0.5 to 2 times of IC50 incubated up to 48 hrs by scratch wound healing assay; assay type: functional, cell-based; conditions: time hrs <=48
MCF-10A = assay: Cytotoxicity against human MCF-10A cells assessed as reduction in cell viability after 72 hrs by CCK8 assay; assay type: cell-based
MDA-MB-231 [4] = assay: Inhibition of colony formation in human MDA-MB-231 cells at IC50 concentration upto 72 hrs by plate colony counting assay; assay type: functional, cell-based; conditions: time hrs <=72, TDE = time-dependent effect
MDA-MB-231 [5] = assay: Inhibition of colony formation in human MDA-MB-231 cells at 0.25 to 2 times of IC50 concentration incubated for 48 hrs by plate colony counting assay; assay type: functional, cell-based
MCF7 [6] = assay: Inhibition of colony formation in human MCF-7 cells at 0.25 to 2 times of IC50 concentration incubated for 48 hrs by plate colony counting assay; assay type: functional, cell-based
MDA-MB-231 [7] = assay: Inhibition of cell migration in human MDA-MB-231 cells 0.5 to 2 times of IC50 incubated up to 48 hrs by scratch wound healing assay; assay type: functional, cell-based; conditions: time hrs <=48
MCF7 [8] = assay: Inhibition of colony formation in human MCF-7 cells at IC50 concentration upto 72 hrs by plate colony counting assay; assay type: functional, cell-based; conditions: time hrs <=72, TDE = time-dependent effect
MDA-MB-231 [9] = assay: Induction of apoptosis in human MDA-MB-231 cells assessed as viable cells at IC50 by Annexin V-FITC/PI double staining based flow cytometry analysis (reference value: 93.34%); assay type: functional
[10] = Antitumour activity against human MDA-MB-468 cells xenografted in mouse assessed as reduction in Ki67 positive cells at 75 mg/kg, by immunohistochemical analysis (reference value: 76.50 +/- 5.28%); assay type: functional, MDA-MB-231; design: scale not given: the % may be the effect or the level left
MDA-MB-231 [11] = assay: Induction of apoptosis in human MDA-MB-231 cells assessed as viable cells at 2 times of IC50 by Annexin V-FITC/PI double staining based flow cytometry analysis (reference value: 93.34%); assay type: functional
MDA-MB-231 [12] = assay: Induction of apoptosis in human MDA-MB-231 cells assessed as early apoptotic cells at 2 times of IC50 by Annexin V-FITC/PI double staining based flow cytometry analysis (reference value: 6.64%); assay type: functional
MDA-MB-231 [13] = assay: Induction of cell cycle arrest in human […] cells assessed as decrease in accumulation of cells at S phase at 0.5 to 2 times of IC50 after 48 hrs by propidium iodide staining-based flow cytometric analysis; assay type: functional
MDA-MB-231 [14] = assay: Induction of apoptosis in human MDA-MB-231 cells assessed as early apoptotic cells at 0.5 times of IC50 by Annexin V-FITC/PI double staining based flow cytometry analysis (reference value: 6.64%); assay type: functional
MDA-MB-231 [15] = assay: Induction of cell cycle arrest in human […] cells assessed as increase in accumulation of cells at G0/G1 phase at 0.5 to 2 times of IC50 after 48 hrs by propidium iodide staining-based flow cytometric analysis; assay type: functional
MDA-MB-231 [16] = assay: Induction of apoptosis in human MDA-MB-231 cells assessed as late apoptotic cells at 0.5 times of IC50 by Annexin V-FITC/PI double staining based flow cytometry analysis (reference value: 0.00%); assay type: functional
[17] = Antitumour activity against human MDA-MB-468 cells xenografted in mouse assessed as reduction in Ki67 positive cells at 25 mg/kg, by immunohistochemical analysis (reference value: 76.50 +/- 5.28%); assay type: functional, MDA-MB-231; design: scale not given: the % may be the effect or the level left
MDA-MB-231 [18] = assay: Induction of cell cycle arrest in human […] cells assessed as decrease in accumulation of cells at G2/M phase at 0.5 to 2 times of IC50 after 48 hrs by propidium iodide staining-based flow cytometric analysis; assay type: functional
MDA-MB-231 [19] = assay: Induction of apoptosis in human MDA-MB-231 cells assessed as late apoptotic cells at 2 times of IC50 by Annexin V-FITC/PI double staining based flow cytometry analysis (reference value: 0.00%); assay type: functional
MDA-MB-231 [20] = assay: Induction of apoptosis in human MDA-MB-231 cells assessed as viable cells at 0.5 times of IC50 by Annexin V-FITC/PI double staining based flow cytometry analysis (reference value: 93.34%); assay type: functional
MDA-MB-231 [21] = assay: Induction of apoptosis in human MDA-MB-231 cells assessed as necrotic cells at 0.5 times of IC50 by Annexin V-FITC/PI double staining based flow cytometry analysis (reference value: 0.02%); assay type: functional
MDA-MB-231 [22] = assay: Induction of apoptosis in human MDA-MB-231 cells assessed as late apoptotic cells at IC50 by Annexin V-FITC/PI double staining based flow cytometry analysis (reference value: 0.00%); assay type: functional
MDA-MB-231 [23] = assay: Induction of apoptosis in human MDA-MB-231 cells assessed as early apoptotic cells at IC50 by Annexin V-FITC/PI double staining based flow cytometry analysis (reference value: 6.64%); assay type: functional
MDA-MB-231 [24] = assay: Induction of apoptosis in human MDA-MB-231 cells assessed as necrotic cells at 2 times of IC50 by Annexin V-FITC/PI double staining based flow cytometry analysis (reference value: 0.02%); assay type: functional
MDA-MB-231 [25] = assay: Induction of apoptosis in human MDA-MB-231 cells assessed as necrotic cells at IC50 by Annexin V-FITC/PI double staining based flow cytometry analysis (reference value: 0.02%); assay type: functional
[26] = Antitumour activity against human MDA-MB-468 cells xenografted in mouse assessed as reduction in Ki67 positive cells at 50 mg/kg, by immunohistochemical analysis (reference value: 76.50 +/- 5.28%); assay type: functional, MDA-MB-231; design: scale not given: the % may be the effect or the level left
[27] = Toxicity in mouse xenografted with human MDA-MB-468 cells assessed as effect on body weight at 25 to 75 mg/kg; assay type: organism-based; conditions: in vivo, dose 25-75 mg/kg

Cc1nc(C)c(/C=C/C(=O)c2ccc(NC(=O)c3ccccc3F)cc2)nc1C
IC50 (MCF7 [1]): 1.27 µM
IC50 (A549): 7.39 µM
IC50 (MDA-MB-231 [2]): 1.98 µM
IC50 (HepG2): 2.04 µM

COc1cc(C(=O)Nc2ccc(C(=O)/C=C/c3nc(C)c(C)nc3C)cc2)cc(OC)c1OC
IC50 (MCF7 [1]): 2.76 µM
IC50 (A549): 7.35 µM
IC50 (MDA-MB-231 [2]): 4.74 µM
IC50 (HepG2): 4.86 µM

COc1cc2nccc(Oc3ccc(NC(=O)C4(C(=O)Nc5ccc(F)cc5)CC4)cc3)c2cc1OC [CABOZANTINIB]
IC50 (MCF7 [1]): 14.3 µM
IC50 (A549): 15.2 µM
IC50 (MDA-MB-231 [2]): 19.7 µM
IC50 (HepG2): 15.6 µM

Cc1nc(C)c(/C=C/C(=O)c2ccc(NC(=O)c3ccc(F)cc3)cc2)nc1C
IC50 (HUVEC): 32.7 µM
inhibition (MCF7 [3]): Dose-Dependent Effect
IC50 (MCF7 [1]): 1.54 µM
IC50 (MCF-10A): 42.9 µM
inhibition (MDA-MB-231 [4]): Tde
IC50 (A549): 4.48 µM
inhibition (MDA-MB-231 [5]): Dose-Dependent Effect
inhibition (MCF7 [6]): Dose-Dependent Effect
inhibition (MDA-MB-231 [7]): Dose-Dependent Effect
IC50 (MDA-MB-231 [2]): 1.67 µM
IC50 (HepG2): 2.25 µM
inhibition (MCF7 [8]): Tde

Cc1nc(C)c(C)nc1C [LIGUSTRAZINE]
IC50 (MCF7 [1]): 29.9 µM
IC50 (A549): 36.5 µM
IC50 (MDA-MB-231 [2]): 20.4 µM
IC50 (HepG2): 38.2 µM

Cc1nc(C)c(/C=C/C(=O)c2ccc(NC(=O)c3ccc(F)cc3F)cc2)nc1C
IC50 (MCF7 [1]): 1.61 µM
IC50 (A549): 2.45 µM
IC50 (MDA-MB-231 [2]): 1.77 µM
IC50 (HepG2): 2.99 µM

Cc1ccc(C(=O)Nc2ccc(C(=O)/C=C/c3nc(C)c(C)nc3C)cc2)cc1
IC50 (MCF7 [1]): 1.18 µM
IC50 (A549): 9.99 µM
IC50 (MDA-MB-231 [2]): 1.78 µM
IC50 (HepG2): 5.45 µM

COc1ccc(C(=O)Nc2ccc(C(=O)/C=C/c3nc(C)c(C)nc3C)cc2)cc1OC
IC50 (MCF7 [1]): 1.66 µM
IC50 (A549): 5.06 µM
IC50 (MDA-MB-231 [2]): 3.36 µM
IC50 (HepG2): 2.56 µM

O=c1[nH]cc(F)c(=O)[nH]1 [FLUOROURACIL]
IC50 (MCF7 [1]): 5.44 µM
IC50 (A549): 2.53 µM
IC50 (MDA-MB-231 [2]): 5.85 µM
IC50 (HepG2): 2.98 µM

Cc1nc(C)c(/C=C/C(=O)c2ccc(NC(=O)c3ccccc3)cc2)nc1C
IC50 (MCF7 [1]): 0.99 µM
IC50 (A549): 7.27 µM
IC50 (MDA-MB-231 [2]): 1.84 µM
IC50 (HepG2): 1.31 µM

COc1cc(OC)cc(C(=O)Nc2ccc(C(=O)/C=C/c3nc(C)c(C)nc3C)cc2)c1
IC50 (MCF7 [1]): 6.27 µM
IC50 (A549): 10.2 µM
IC50 (MDA-MB-231 [2]): 11.6 µM
IC50 (HepG2): 11 µM

COc1cccc(OC)c1C(=O)Nc1ccc(C(=O)/C=C/c2nc(C)c(C)nc2C)cc1
IC50 (MCF7 [1]): 2.47 µM
IC50 (A549): 8.47 µM
IC50 (MDA-MB-231 [2]): 3.85 µM
IC50 (HepG2): 3.38 µM

COc1ccc(C(=O)Nc2ccc(C(=O)/C=C/c3nc(C)c(C)nc3C)cc2)cc1
IC50 (HUVEC): 29.2 µM
inhibition (MCF7 [3]): Dose-Dependent Effect
Activity (MDA-MB-231 [9]): 44.51%
Activity [10]: 8.95%
IC50 (MCF7 [1]): 1.41 µM
IC50 (MCF-10A): 59.6 µM
inhibition (MDA-MB-231 [4]): Tde
Activity (MDA-MB-231 [11]): 30.97%
IC50 (A549): 4.15 µM
Activity (MDA-MB-231 [12]): 50.96%
Activity (MDA-MB-231 [13]): Active
Activity (MDA-MB-231 [14]): 25.14%
Activity (MDA-MB-231 [15]): Active
Activity (MDA-MB-231 [16]): 0.65%
Activity [17]: 19.51%
inhibition (MDA-MB-231 [5]): Dose-Dependent Effect
Activity (MDA-MB-231 [18]): Active
Activity (MDA-MB-231 [19]): 15.92%
inhibition (MCF7 [6]): Dose-Dependent Effect
Activity (MDA-MB-231 [20]): 72.66%
inhibition (MDA-MB-231 [7]): Dose-Dependent Effect
Activity (MDA-MB-231 [21]): 1.54%
Activity (MDA-MB-231 [22]): 8.62%
Activity (MDA-MB-231 [23]): 43.98%
IC50 (MDA-MB-231 [2]): 1.6 µM
IC50 (HepG2): 1.19 µM
Activity (MDA-MB-231 [24]): 2.15%
Activity (MDA-MB-231 [25]): 2.89%
Activity [26]: 11.29%
inhibition (MCF7 [8]): Tde
Activity [27]: Non-Toxic

O=C(/C=C/c1ccc(O)cc1)c1ccc(O)cc1O [ISOLIQUIRITIGENIN]
IC50 (MCF7 [1]): 17.7 µM
IC50 (A549): 52.6 µM
IC50 (MDA-MB-231 [2]): 10.9 µM
IC50 (HepG2): 27.7 µM
